Source: US20240131032A1, “AN ACTIVITY-GUIDED MAP OF ELECTROPHILE-CYSTEINE INTERACTIONS IN PRIMARY HUMAN IMMUNE CELLS” (The Scripps Research Institute, priority 2019, published 2024)

Legend:
TMEM173 = target: T1, TMEM173 (Homo sapiens, UniProt Q86WV6); test: TMEM173/STING pathway activation by cGAMP in PBMCs (qPCR, ELISA, Bio-Plex); assay type: cell-based; details: BPK-25 10 μM
T1 construct: endogenous in cells; host or cells: primary human T cells
Description: FIG. 12A is a pie chart showing the fraction of protein targets of active compounds with available crystal structures containing the corresponding liganded cysteine residues. FIG. 12B is a computer-generated model of BPK-21 and BPK-25 interactions with C91 of stimulator of interferon genes protein (STING, or TMEM173). FIG. 12C is a graph of IRF response of THP1-Lucia™ ISG cells. THP-1 Lucia ISG cells were treated with DMSO or BPK-25 in the presence of viral dsDNA (2 μg/mL) for 24 h and the levels of IRF-induced Lucia luciferase were determined using QUANTI-Luc™. Cell viability was measured using CellTiter-Glo™ assay. Luminescence signals for test samples were normalized to DMSO-treated samples and reported as relative light units (RLU)±SEM; n=3/group. […] Relative expression of IL-6, IL-1β, and IP10 (CXCL10) genes was measured by qPCR and normalized to actin. […] GFP-positive cells were further analyzed for CD25 and CD69 expression levels by measuring mean fluorescence intensity of the PE- (PE-CD25) and APC-channels (APC-CD69). […]
Freshly isolated PBMCs (4×10^6 cells/mL, 1 mL/well), were treated with BPK-25 (10 μM) or vehicle (DMSO) for 6 h in a 24-well plate, after which cGAMP (10 μM) was added to the wells and the cells were incubated for additional 20 h. […] When run on the Bioplex 200 system, […] of supernatant was mixed with 50 μL of beads and quantified against human cytokines standard curves. […]

NF-κB = NF-κB activation in stimulated T cells (phosphorylation readout); assay type: cell-based, human; details: 24 h
Description: All treatments were for 24 h.
Freshly isolated T cells (2×10^5 cells/well) were harvested and stimulated as described before in a 96-well plate in the presence of DMSO or compounds of interest. Following the overnight treatment, the cells were pelleted in a U-bottom plate, harvested by centrifugation (600 g, 3 min, 4° C.), washed with PBS, and stained with near-IR LIVE/DEAD dye as described above. After the staining, intracellular phospho-NF-κB p65 (Ser536) levels were measured using PE conjugate of phospho-NF-κB p65 (Ser536) (93H1) rabbit antibody (Cell Signaling Technology) according to manufacturer's instructions. Briefly, the cells were washed with PBS and fixed with 4% PFA in PBS (100 μL, 15 min, rt). The cells were washed with PBS again (2×150 μL), placed on ice and permeabilized with 90% MeOH (100 μL/well, slow addition with gentle mixing by pipetting up and down). Following a 30 min incubation on ice, the plate was sealed and stored at −20° C. overnight. The following day, the cells were thawed on ice, washed with PBS (150 μL×2), and stained with PE conjugate of phospho-NF-κB p65 (Ser536) (93H1) rabbit antibody (50 μL, 1:100 dilution in incubation buffer (1% FBS in PBS)) for 1 h at rt in the dark. The cells were then washed with incubation buffer (150 μL×2) and resuspended in PBS for further flow cytometry analysis.

T1 sequence (Q86WV6 whole entry H232R): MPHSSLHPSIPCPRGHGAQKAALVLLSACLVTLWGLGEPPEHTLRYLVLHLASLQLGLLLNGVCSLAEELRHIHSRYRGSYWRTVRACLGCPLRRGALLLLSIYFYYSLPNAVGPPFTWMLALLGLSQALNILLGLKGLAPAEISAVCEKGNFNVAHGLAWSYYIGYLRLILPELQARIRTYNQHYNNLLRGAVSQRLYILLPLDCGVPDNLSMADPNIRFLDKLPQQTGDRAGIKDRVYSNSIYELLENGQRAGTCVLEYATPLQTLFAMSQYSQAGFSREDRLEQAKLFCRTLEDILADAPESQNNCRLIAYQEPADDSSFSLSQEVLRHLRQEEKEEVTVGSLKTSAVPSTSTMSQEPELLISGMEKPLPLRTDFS

Compound | TMEM173 activation by cGAMP in primary human PBMCs (TMEM173) | reductions in phosphorylation (NF-κB activation) (NF-κB)
C=CC(=O)N(Cc1cccc(Cl)n1)c1ccc(C(=O)Nc2ccccc2)nc1 [BPK-25] | inhibited TMEM173 activation | –
C=CC(=O)N(Cc1cccc(Cl)c1Cl)c1ccc(Oc2ccccc2)c(C(F)(F)F)c1 [BPK-21] | – | did not appear to impact
